Test [1] concerns staphylococcus ATTC6341(Sa). In words: Antibacterial activity, zone of inhibition, penicillin sensitive Sa strain. Type of test: cell-based. As to the method:
(§1) Next, the antibacterial activity of the prepared sulfur-containing BPA-FBz compounds is evaluated using two strains of staphylococcus ATTC6341(Sa) and ATTC11632(Sr), and the results are shown in Table 2. In particular, the Sa strain and the Sr strain have different sensitivities to antibiotics. The Sa strain is penicillin sensitive, and the Sr strain is penicillin resistant, and ampicillin is used as positive control. It can be known from Table 2 that, none of BPA-FBz and sulfur-containing BPA-FBz compounds having low sulfur content (i.e., compounds 1 and 2) has antibacterial activity.

In test [2] the test system is staphylococcus ATTC11632(Sr). As to the kind of experiment: Antibacterial activity, zone of inhibition, penicillin resistant Sr strain. Type of test: cell-based. The method, then:
as §1

[3] abbreviates: dash = no antibacterial activity.

SMILES strings stand for the structures.

Consider `CC(C)(c1ccc2c(c1)CN(Cc1ccco1)CO2)c1ccc2c(c1)CN(Cc1ccco1)CO2` [BPA-FBz, bis(3-furfuryl-3,4-dihydro-2H-1,3-benzoxazinyl)isopropane], for which the “antibacterial activity (in words)” value in test [1] and in test [2] was “none” throughout.
On to `CC1(C)S[C@@H]2[C@H](NC(=O)[C@H](N)c3ccccc3)C(=O)N2[C@H]1C(=O)O` [Ampicillin, ampicillin], for which the Zone of inhibition worked out at 34.0 mm in test [1] (setting [3]) and 9.0 mm in test [2] (setting [3]).

The record behind these values is patent publication US9809584B1, “Sulfur-containing oxazine compound and synthesis method thereof” (National Tsing Hua University, priority 2016, dated 2017).
